Assay results published in patent publication US8952169B2 (Genentech, Inc., priority 2012, dated 2015).

Tests used:
[1] = biological target: T1, hNav1.7 (Homo sapiens (Human), UniProt Q15858); test: Tritiated aryl sulfonamide binding to membranes from cells expressing hNav1.7 and the β1 subunit (competitive binding); conditions: read-out: NaV1.7 395 Memb Binding (IC50)
Method in brief: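 Competitive displacement of 100 μM [3H]-labelled tritiated aryl sulfonamide from hNav1.7/β1 membranes, 18 h at room temperature in 100 mM NaCl, 20 mM Tris HCl pH 7.4. Non-specific binding defined with 1 μM unlabelled compound. Filter-bound radioactivity measured by liquid scintillation counting.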

[2] = biological target: T1, hNav1.7; test: Patch voltage clamp electrophysiology (PatchXpress), HEK-293 cells, inactivated state block; assay type: cell-based; conditions: read-out: EP_PX 293 hNav1.7 (IC50)
[3] = membranes with hNav1.7 and β1 subunit, [3H]compound displacement, 18 h, room temperature
[4] = HEK-293 cells, β1 coexpressed, inactivated state, holding −60 mV

T1 sequence (Q15858 whole entry, looked up): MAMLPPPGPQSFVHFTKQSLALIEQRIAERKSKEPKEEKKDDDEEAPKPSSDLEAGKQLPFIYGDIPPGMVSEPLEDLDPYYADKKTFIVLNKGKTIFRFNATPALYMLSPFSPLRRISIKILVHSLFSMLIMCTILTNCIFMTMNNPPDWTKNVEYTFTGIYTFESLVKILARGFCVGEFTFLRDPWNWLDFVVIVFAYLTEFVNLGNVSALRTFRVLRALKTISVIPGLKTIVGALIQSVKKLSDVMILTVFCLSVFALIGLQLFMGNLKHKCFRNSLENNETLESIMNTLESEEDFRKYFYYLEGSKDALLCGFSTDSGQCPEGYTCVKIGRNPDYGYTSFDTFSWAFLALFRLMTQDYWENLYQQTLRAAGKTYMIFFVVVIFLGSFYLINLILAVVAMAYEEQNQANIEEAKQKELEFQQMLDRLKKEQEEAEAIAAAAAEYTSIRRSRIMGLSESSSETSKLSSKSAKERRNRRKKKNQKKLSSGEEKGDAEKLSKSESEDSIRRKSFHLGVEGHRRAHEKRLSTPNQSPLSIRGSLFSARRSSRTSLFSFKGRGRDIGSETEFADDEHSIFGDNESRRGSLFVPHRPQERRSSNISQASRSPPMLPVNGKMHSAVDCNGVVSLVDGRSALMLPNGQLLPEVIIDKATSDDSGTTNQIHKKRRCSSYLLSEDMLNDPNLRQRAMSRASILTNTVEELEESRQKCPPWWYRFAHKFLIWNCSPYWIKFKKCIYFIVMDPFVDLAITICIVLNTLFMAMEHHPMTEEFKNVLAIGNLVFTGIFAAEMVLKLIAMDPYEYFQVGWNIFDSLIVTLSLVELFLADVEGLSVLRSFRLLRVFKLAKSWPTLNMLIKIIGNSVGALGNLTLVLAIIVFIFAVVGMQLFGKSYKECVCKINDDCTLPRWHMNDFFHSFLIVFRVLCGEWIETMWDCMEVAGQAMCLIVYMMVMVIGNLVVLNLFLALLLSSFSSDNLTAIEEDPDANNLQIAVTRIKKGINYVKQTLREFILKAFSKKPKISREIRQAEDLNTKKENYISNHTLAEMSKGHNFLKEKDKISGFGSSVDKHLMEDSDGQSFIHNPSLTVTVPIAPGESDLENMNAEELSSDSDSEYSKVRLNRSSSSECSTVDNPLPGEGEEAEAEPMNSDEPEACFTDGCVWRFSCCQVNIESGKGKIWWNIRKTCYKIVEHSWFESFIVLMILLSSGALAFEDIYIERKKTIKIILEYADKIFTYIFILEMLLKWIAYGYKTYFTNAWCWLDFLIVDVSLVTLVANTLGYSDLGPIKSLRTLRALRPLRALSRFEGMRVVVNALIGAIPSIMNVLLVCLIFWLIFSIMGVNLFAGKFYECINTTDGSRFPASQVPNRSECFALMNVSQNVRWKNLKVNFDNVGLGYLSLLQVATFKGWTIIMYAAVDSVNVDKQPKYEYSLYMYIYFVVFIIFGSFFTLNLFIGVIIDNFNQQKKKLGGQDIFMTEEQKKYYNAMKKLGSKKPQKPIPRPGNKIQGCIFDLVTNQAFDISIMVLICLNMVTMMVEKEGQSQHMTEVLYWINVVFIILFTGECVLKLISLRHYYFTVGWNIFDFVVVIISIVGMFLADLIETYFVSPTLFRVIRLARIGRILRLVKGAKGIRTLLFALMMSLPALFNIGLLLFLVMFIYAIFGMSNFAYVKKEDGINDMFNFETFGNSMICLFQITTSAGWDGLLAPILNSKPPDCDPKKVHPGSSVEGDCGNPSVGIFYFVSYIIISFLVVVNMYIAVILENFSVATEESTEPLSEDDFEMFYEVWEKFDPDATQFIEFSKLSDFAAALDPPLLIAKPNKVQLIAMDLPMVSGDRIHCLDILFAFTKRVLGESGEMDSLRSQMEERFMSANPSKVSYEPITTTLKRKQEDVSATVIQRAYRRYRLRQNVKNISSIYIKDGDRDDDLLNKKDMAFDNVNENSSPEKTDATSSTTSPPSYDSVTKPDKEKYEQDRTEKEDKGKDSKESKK
T1 sequence (Q07699 whole entry partner, looked up): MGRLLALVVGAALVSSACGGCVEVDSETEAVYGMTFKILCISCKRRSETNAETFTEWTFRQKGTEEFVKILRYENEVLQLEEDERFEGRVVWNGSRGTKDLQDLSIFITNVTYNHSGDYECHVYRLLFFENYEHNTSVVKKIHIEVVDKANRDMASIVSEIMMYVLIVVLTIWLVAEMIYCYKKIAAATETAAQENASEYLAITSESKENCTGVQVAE

Row | Molecule | IC50 [1, 3] [nM] | IC50 [2, 4] [nM] | IC50 [1] [nM] | IC50 [2] [nM]
1 | CC1CCC(COc2cc(F)c(C(=O)NS(C)(=O)=O)cc2C2CC2)CC1 (centres unmarked) | 8 | 28 | – | –
2 | O=C(NS(=O)(=O)N1CCC(O)CC1)c1cc(C2CC2)c(OCC23CC4CC(CC(C4)C2)C3)cc1F | 26 | 23 | – | –
3 | CC1(C)CCCC(Oc2cc(F)c(C(=O)NS(C)(=O)=O)cc2C2CC2)C1 (centres unmarked) [Example 358, 5-cyclopropyl-4-((3,3-dimethylcyclohexyl)oxy)-2-fluoro-N-(methylsulfonyl)benzamide] | 12 | 62 | – | –
4 | O=C(NS(=O)(=O)N1CCC1)c1cc(C2CC2)c(OC2CCC3(CC2)CC3)cc1F | 23 | 29 | – | –
5 | O=C(NS(=O)(=O)N1CCC1)c1cc(F)c(OCC23CC4CC(CC(C4)C2)C3)c(Cl)c1F | 1300 | 5200 | – | –
6 | CC1CCCC(C)C1COc1cc(F)c(C(=O)NS(=O)(=O)C2CC2)cc1Cl (centres unmarked) [Example 397] | 32 | 200 | – | –
7 | O=C(NS(=O)(=O)N1CCC1)c1cc(C2CC2)c(O[C@H]2C[C@@H]3CC[C@H]2C3)cc1F | 70 | 32 | – | –
8 | O=C(NS(=O)(=O)CCO)c1cc(C2CC2)c(OCC23CC4CC(CC(C4)C2)C3)cc1F | 7 | 4.6 | – | –
9 | 4-(adamantan-1-ylmethoxy)-N-(azetidin-1-ylsulfonyl)-3-chloro-5-fluorobenzamide [Example 416] | 5 | 9 | – | –
10 | COCCS(=O)(=O)NC(=O)c1cc(C2CC2)c(OCC23CCCCC2C3)cc1F (centres unmarked) | 19 | 10 | – | –
11 | O=C(NS(=O)(=O)C1CC1)c1cc(C2CC2)c(OC2CCC(F)(F)CC2)cc1F | 43 | 140 | – | –
12 | O=C(NS(=O)(=O)N1CCC1)c1cc(C2CC2)c(OC2CCC3(CCCCC3)CC2)cc1F | 6.3 | 220 | – | –
13 | CC1(C)CCCC(COc2cc(F)c(C(=O)NS(=O)(=O)N3CCC3)cc2C2CC2)C1 (centres unmarked) | 4 | 8 | – | –
14 | COCCS(=O)(=O)NC(=O)c1cc(C2CC2)c(OCC23CCCCC2C3(F)F)cc1F (centres unmarked) [Example 311] | 30 | 53 | – | –
15 | O=C(NS(=O)(=O)N1CCC1)c1cc(C2CC2)c(O[C@@H]2C[C@@H]3CC[C@H]2C3)cc1F | 31 | 80 | – | –
16 | CC1CCCC(C)C1COc1cc(F)c(C(=O)NS(=O)(=O)N2CCC2)cc1Cl (centres unmarked) | 25 | 74 | – | –
17 | O=C(NS(=O)(=O)C1CC1)c1cc(C2CC2)c(OCC2CCC(C(F)(F)F)CC2)cc1F (centres unmarked) [Example 428, 5-cyclopropyl-N-cyclopropylsulfonyl-2-fluoro-4-[[4-(trifluoromethyl)cyclohexyl]methoxy]benzamide] | 4 | 12 | – | –
18 | O=C(NS(=O)(=O)C1CC1)c1cc(C2CC2)c(O[C@H]2C3CC4CC2C[C@@](Cl)(C4)C3)cc1F | 4 | 24 | – | –
19 | O=C(NS(=O)(=O)N1CCC1)c1cc(C2CC2(F)F)c(OCC23CC4CC(CC(C4)C2)C3)cc1F (centres unmarked) | 5 | 340 | – | –
20 | O=C(NS(=O)(=O)N1CCC1)c1cc(C2CC2)c(OCC23CC4CC(CC(CF)(C4)C2)C3)cc1F | 4 | 8 | – | –
21 | [2H]C1([2H])C([2H])([2H])C([2H])([2H])C([2H])(COc2cc(F)c(C(=O)NS(=O)(=O)N3CCC3)cc2C2CC2)C([2H])([2H])C1([2H])[2H] | 11 | 100 | – | –
22 | CC1CCCC(C)C1COc1cc(F)c(C(=O)NS(=O)(=O)N2CCC2)cc1C1CC1 (centres unmarked) | 60 | 390 | – | –
23 | O=C(NS(=O)(=O)N1CCC1)c1cc(C2CC2)c(OC2CCC(F)(F)CC2)cc1F | 110 | 270 | – | –
24 | O=C(NS(=O)(=O)N1CCC1)c1cc(C2CC2)c(OCC2CC=C(Cl)CC2)cc1F (centres unmarked) [Example 376] | 20 | 30 | – | –
25 | O=C(NS(=O)(=O)C1CC1)c1cc(C2CC2)c(OCC2CN(C(c3ccccc3)c3ccccc3)C2)cc1F (single isomer, unassigned) | 5 | 82 | – | –
26 | CS(=O)(=O)NC(=O)c1cc(C2CC2)c(OCC2CCC3CC3C2)cc1F (centres unmarked) | 9 | 2 | – | –

Row | Molecule | IC50 [1, 3] [nM] | IC50 [2, 4] [nM] | IC50 [1] [nM] | IC50 [2] [nM]
27 | CC1(COc2cc(F)c(C(=O)NS(=O)(=O)C3CC3)cc2C2CC2)CCC(C(F)(F)F)CC1 (centres unmarked) [Example 426, 5-cyclopropyl-N-cyclopropylsulfonyl-2-fluoro-4-[[1-methyl-4-(trifluoromethyl)cyclohexyl]methoxy]benzamide] | 2 | 51 | – | –
28 | CS(=O)(=O)NC(=O)c1cc(C2CC2)c(OCC2CCCC(F)(F)C2)cc1F (centres unmarked) [Example 402] | 22 | 300 | – | –
29 | CC1(F)CCC(COc2cc(F)c(C(=O)NS(=O)(=O)N3CCC3)cc2C2CC2)CC1 (centres unmarked) | 22 | 35 | – | –
30 | O=C(NS(=O)(=O)C1CC1)c1cc(Cl)c(OC2CCC(F)(F)CC2)cc1F [Example 339] | 310 | 3300 | – | –
31 | O=C(NS(=O)(=O)C1CC1)c1cc(C2CC2)c(OCC2CCC3C(C2)C3(F)F)cc1F (centres unmarked) | 8 | 9 | – | –
32 | O=C(NS(=O)(=O)N1CC(F)C1)c1cc(C2CC2)c(O[C@H]2C3CC4CC2C[C@](Cl)(C4)C3)cc1F | 20 | 1200 | – | –
33 | CNS(=O)(=O)NC(=O)c1cc(C2CC2)c(OCC2CCCC(F)(F)C2)cc1F (centres unmarked) [Example 403] | 90 | 910 | – | –
34 | CCS(=O)(=O)NC(=O)c1cc(Cl)c(OCC2CCC3(CC2)CC3)cc1F [Example 400] | 20 | 97 | – | –
35 | CS(=O)(=O)NC(=O)c1cc(C2CC2)c(OC2CCC3(CCCCC3)CC2)cc1F | 7 | 120 | – | –
36 | CS(=O)(=O)NC(=O)c1cc(C2CC2(F)F)c(OCC23CC4CC(CC(C4)C2)C3)cc1F (centres unmarked) [Example 380] | 4 | 80 | – | –
37 | CC1(C)CCCC(Oc2cc(F)c(C(=O)NS(=O)(=O)N3CCC3)cc2C2CC2)C1 (centres unmarked) [Example 357] | 16 | 120 | – | –
38 | CS(=O)(=O)NC(=O)c1cc(C2CC2)c(O[C@H]2C[C@@H]3CC[C@H]2C3)cc1F | 74 | 24 | – | –
39 | O=C(NS(=O)(=O)C1CC1)c1cc(Cl)c(OCC2(C(F)(F)F)CCC2)cc1F [Example 328] | 24 | 70 | – | –
40 | COC(=O)C12CC3C[C@H](C1)C(Oc1cc(F)c(C(=O)NS(C)(=O)=O)cc1Cl)[C@@H](C3)C2 (stereo partly drawn) [Example 353, (1s,3R,4r,5S,7s)-methyl 4-(2-chloro-5-fluoro-4-((methyl-sulfonyl)carbamoyl)-phenoxy)adamantane-1-carboxylate] | 130 | 240 | – | –
41 | O=C(NS(=O)(=O)C1CC1)c1cc(C2CC2)c(OCC2(C(F)(F)F)CCC2)cc1F [Example 327] | 3 | 12 | – | –
42 | CS(=O)(=O)NC(=O)c1cc(C2CC2)c(OCC2CCC3C(C2)C3(F)F)cc1F (centres unmarked) | 21 | 19 | – | –
43 | COC12CC3CC(C1)C(Oc1cc(F)c(C(=O)NS(C)(=O)=O)cc1Cl)C(C3)C2 (centres unmarked) | 730 | 610 | – | –
44 | CC1(C)CCC(COc2cc(F)c(C(=O)NS(=O)(=O)N3CCC3)cc2C2CC2)CC1 [Example 309] | – | – | 6 | 79
45 | O=C(NS(=O)(=O)N1CCC1)c1cc(C2CC2)c(COC23CC4CC(CC(C4)C2)C3)cc1F [Example 320] | 17 | 140 | – | –
46 | O=C(NS(=O)(=O)C1CC1)c1cc(C2CC2)c(O[C@H]2C3CC4CC2C[C@](F)(C4)C3)cc1F | 11 | 43 | – | –
47 | O=C(NS(=O)(=O)N1CCC1)c1cc(Cl)c(OCC2(C(F)(F)F)CCC2)cc1F [Example 330] | 25 | 91 | – | –
48 | O=C(NS(=O)(=O)N1CCC1)c1cc(C2CC2)c(OC2CCC(Cl)(Cl)CC2)cc1F | 44 | 120 | – | –
49 | O=C(NS(=O)(=O)N1CCC1)c1cc(C2CC2)c(O[C@H]2C3CC4CC2C[C@@](Cl)(C4)C3)cc1F | 10 | 94 | – | –
50 | O=C(NS(=O)(=O)N1CCC1)c1cc(C2CC2)c(OCC23CC4CC(C2)C(F)(F)C(C4)C3)cc1F | 4 | 6 | – | –
51 | O=C(NS(=O)(=O)C1CC1)c1cc(Cl)c(OC2CCC(Cl)(Cl)CC2)cc1F [Example 293] | 180 | 140 | – | –
52 | O=C(NS(=O)(=O)N1CCC1)c1cc(C2CC2)c(OCC2CCC3(CC2)CC3)cc1F | 4 | 6 | – | –
